test system: genotype A, "Long" strain RSV; assay: RSV-A in vitro cytoprotection assay in HEp-2 cells (ATPlite readout of cell viability); format: cell-based, Human respiratory syncytial virus; details: human respiratory syncytial virus, HEp-2, HEp-2 cells, genotype A “Long” strain RSV, cytoprotection; read-out: Human RSV-A (“Long” strain) EC50
Text: RSV is a single stranded negative sense RNA virus that causes respiratory tract infections which can be dangerous to infants, the elderly, and immunosuppressed individuals. Currently there is no vaccine, and therapeutic options are both costly and of limited effectiveness. These approved treatments are Ribavirin, and Palivizumab/Synagis (a monoclonal antibody). RSV has two genotypes, A and B, which differ primarily in the structure of the virus' surface “G” attachment protein. Our current primary screen focuses on RSV-A and uses an in vitro cytoprotection assay where compounds are added in 2-fold dilutions to cells which are then subjected to fully replicative viral particles. Cell viability is measured several days later along with separate measurements of compound cytotoxicity. This report focuses on the results of our most recent screening of compounds.
HEp-2 cells, (originally derived from tumors grown in irradiated-cortisonised weanling rats that had been injected with epidermoid carcinoma tissue from a person's larynx, but later found to be indistinguishable from HeLa cells by PCR DNA analysis), were used for the culturing of genotype A, “Long” strain RSV. Flasks were inoculated with RSV and viral stocks were collected once cytopathic effect (CPE) was greater than 90%. Viral stocks in 25% sucrose media were snap frozen using liquid nitrogen to increase viral stability. Viral stock titers were quantified by tissue culture infectious dose 50% (TCID50) using 8,000 cells per well and 3-fold viral dilutions across a 96-well plate, cultured for 4 days.
Following extensive parameter testing, the final assay is run as follows: HEp-2 cells are seeded into the inner 60 wells of a 96-well plate at 8,000 cells per well in a volume of 50 μL using Growth Media (DMEM without phenol red, 1% L-Glut, 1% Penn/Strep, 1% nonessential amino acids, 10% FBS). 2-Fold serial dilutions of control and test compounds are added to the wells in duplicate in a total volume of 25 μL. Viral stock is then added to the wells in a volume of 25 μL, bringing the total volume of each well to 100 μL. Each 96-well plate has a control column of 6 wells with cells and virus but no compound (negative control, max CPE), a column with cells but no compound or virus (positive control, minimum CPE), and a column with no cells or virus or compound (background plate/reagent control). The control wells with cells but no virus are given an additional 25 uL of growth media containing an equal quantity of sucrose as those wells receiving the viral stock in order to keep consistent in media and volume conditions. The outer wells of the plate are filled with 125 μL of growth media to act as a thermal and evaporative moat around the test wells. Following a 4-day incubation period, the plates are read using ATPlite (50 uL added per well), which quantifies the amount of ATP (a measure of cell health) present in each well. Assay plates are read using the Envision luminometer. In parallel, cytotoxicity is examined on an additional 96-well plate treated in an identical manner, but substituting the 25 μL of viral stock for 25 μL of growth media. […] EC50 ranges are as follows: A <0.4 μM; B 0.4-0.8 μM; C >0.8 μM.

SMILES | EC50
Cc1cccc(F)c1NC(=O)c1cc2c(s1)-c1ccccc1N(C(=O)c1cccc(N3CC4(CCS4(=O)=O)C3)n1)CC2 [Example 472] | > 800 nM
Cc1cc(-c2cccc(C(=O)N3CCc4cc(C(=O)Nc5ccccc5N)sc4-c4ccccc43)n2)n(C)n1 [Example 239] | > 800 nM
Cc1cccc(F)c1NC(=O)c1cc2c(s1)-c1ccccc1N(C(=O)c1cccc(-n3cnnc3C3CC3)n1)CC2 [Example 145] | > 800 nM
O=C(NC1CC1)c1cc2c(s1)-c1ccccc1N(C(=O)c1cccc(N3CCOc4ccc(Cl)cc4C3)n1)CC2 [Example 279] | < 400 nM
O=C(NC1CC1)c1cc2c(s1)-c1ccccc1N(C(=O)c1cccc(-c3ccc(C(F)(F)F)nc3)n1)CC2 [Example 73] | 400 to 800 nM
Cc1cccc(F)c1NC(=O)c1cc2c(s1)-c1ccccc1N(C(=O)c1cccc(N3CCN(C4CC4)S(=O)(=O)CC3)n1)CC2 [Example 448] | < 400 nM
Cc1cccc(F)c1NC(=O)c1cc2c(s1)-c1ccccc1N(C(=O)c1cccc(NCC3(C)CCCO3)n1)CC2 (centres unmarked) [Example 361] | > 800 nM
O=C(NC1CC1)c1nc2c(s1)CCN(C(=O)c1cccc(N3CCCOCC3)n1)c1ccccc1-2 [Example 108] | 400 to 800 nM
Cc1cccc(F)c1NC(=O)c1cc2c(s1)-c1ccccc1N(C(=O)c1cccc(-c3cn(CCN(C)C)nc3C3CC3)n1)CC2 [Example 228] | > 800 nM
O=C(NC1CC1)c1cc2c(s1)-c1ccccc1N(C(=O)c1cccc(C3CCN(C4COC4)CC3)n1)CC2 [Example 57] | 400 to 800 nM
O=C(Nc1cc2c(s1)-c1ccccc1N(C(=O)c1cccc(N3CCOc4ccccc4C3)n1)CC2)NS(=O)(=O)C1CC1 [Example 316] | > 800 nM
Cc1cccc(F)c1NC(=O)c1cc2c(s1)-c1ccccc1N(C(=O)c1cccc(-n3c(=O)[nH]c4ccccc43)n1)CC2 [Example 450] | < 400 nM
O=C(NC1CC1)c1cc2c(s1)-c1ccccc1N(C(=O)c1ccc3nc(N4CCOCC4)oc3c1)CC2 [Example 10] | > 800 nM
Cc1cccc(F)c1NC(=O)c1cc2c(s1)-c1ccccc1N(C(=O)c1cccc(-c3cn(C)c4ccccc34)n1)CC2 [Example 208] | > 800 nM
CC(C)(Nc1cccc(C(=O)N2CCc3cc(C(=O)NC4CC4)sc3-c3ccccc32)n1)c1ccccn1 [Example 293] | > 800 nM
Cc1cccc(F)c1NC(=O)c1cc2c(s1)-c1ccccc1N(C(=O)c1cccc(-c3cncn3-c3ccccc3F)n1)CC2 [Example 205] | > 800 nM
Cc1cccc(F)c1NC(=O)c1cc2c(s1)-c1ccccc1N(C(=O)c1cccc(N3CCCN(S(=O)(=O)C4CC4)CC3)n1)CC2 [Example 382] | < 400 nM
COC[C@H]1CCCN1c1cccc(C(=O)N2CCc3cc(C(=O)Nc4c(C)cccc4F)sc3-c3ccc(Br)cc32)n1 [Example 498] | < 400 nM
O=C(NC1CC1)c1cc2c(s1)-c1ccccc1N(C(=O)c1cccc(C3=CCNCC3)n1)CC2 [Example 54] | > 800 nM
O=C(NC1CC1)c1cc2c(s1)-c1ccccc1N(C(=O)c1cccc(N3CCOC[C@@H]3c3ccccc3)n1)CC2 [Example 276] | > 800 nM
O=C(NC1CC1)c1cc2c(s1)-c1ccccc1N(C(=O)c1cccc(-c3ccnc4ccccc34)n1)CC2 [Example 152] | > 800 nM
COCCN(c1cccc(C(=O)N2CCc3cc(C(=O)Nc4c(C)cccc4F)sc3-c3ccccc32)n1)C1CC1 [Example 471] | < 400 nM
O=C(NC1CC1)c1cc2c(s1)-c1ccccc1N(C(=O)c1cccc(C3CCOCC3)n1)CC2 [Example 60] | 400 to 800 nM
Cc1cccc(F)c1NC(=O)c1cc2c(s1)-c1ccccc1N(C(=O)c1cccc(NCCOC(C)C)n1)CC2 [Example 331] | < 400 nM
O=C(NC1CC1)c1cc2c(s1)-c1ccccc1N(C(=O)c1ccc3nc(CN4CCOCC4)oc3c1)CC2 [Example 11] | > 800 nM
CNC(=O)n1ncc(-c2cccc(C(=O)N3CCc4cc(C(=O)Nc5c(C)cccc5F)sc4-c4ccccc43)n2)c1C1CC1 [Example 218] | < 400 nM

SMILES | EC50
Cc1cccc(F)c1NC(=O)c1cc2c(s1)-c1ccccc1N(C(=O)c1cccc(NCC3OCc4ccccc43)n1)CC2 (centres unmarked) [Example 336] | < 400 nM
CN1Cc2cccc(Nc3cccc(C(=O)N4CCc5cc(C(=O)NC6CC6)sc5-c5ccccc54)n3)c2C1=O [Example 412] | > 800 nM
Cc1cccc(F)c1NC(=O)c1cc2c(s1)-c1ccccc1N(C(=O)c1cccc(N3CCN(C)S(=O)(=O)CC3)n1)CC2 [Example 447] | < 400 nM
Cc1cccc(F)c1NC(=O)c1cc2c(s1)-c1ccccc1N(C(=O)c1cccc(N(C)Cc3ccc4ncccc4c3)n1)CC2 [Example 360] | < 400 nM
COC[C@@H](Nc1cccc(C(=O)N2CCc3cc(C(=O)Nc4c(C)cccc4F)sc3-c3ccccc32)n1)c1ccccc1 [Example 501] | > 800 nM
Cc1cccc(F)c1NC(=O)c1cc2c(s1)-c1ccccc1N(C(=O)c1cccc(-n3cc(C#N)cn3)n1)CC2 [Example 143] | > 800 nM
COC[C@H]1CCCN1c1cccc(C(=O)N2CCc3cc(C(=O)Nc4c(C)cccc4F)sc3-c3ccc(C)cc32)n1 [Example 499] | < 400 nM
Cc1cccc(F)c1NC(=O)c1cc2c(s1)-c1ccccc1N(C(=O)c1cccc(NCCS(C)(=O)=O)n1)CC2 [Example 422] | > 800 nM
CCn1nccc1-c1cccc(C(=O)N2CCc3cc(C(=O)Nc4c(C)cccc4F)sc3-c3ccccc32)n1 [Example 238] | < 400 nM
O=C(NC1CC1)c1cc2c(s1)-c1ccccc1N(C(=O)c1cccc(N3CCOC[C@H]3c3ccccc3)n1)CC2 [Example 277] | > 800 nM
Cc1cccc(F)c1NC(=O)c1cc2c(s1)-c1ccccc1N(C(=O)c1cccc(N3CCC[C@H]3Cc3ccccc3)n1)CC2 [Example 487] | 400 to 800 nM
Cc1cccc(F)c1NC(=O)c1cc2c(s1)-c1cccc(F)c1N(C(=O)c1cccc(N3CCCOCC3)n1)CC2 [Example 503] | < 400 nM
Cc1cccc(F)c1NC(=O)c1cc2c(s1)-c1ccccc1N(C(=O)c1cccc(N(CCO)C3CCC3)n1)CC2 [Example 327] | < 400 nM
COc1ccc(-c2cccc(C(=O)N3CCc4cc(C(=O)NC5CC5)sc4-c4ccccc43)c2)cc1 [Example 5] | 400 to 800 nM
CC(=O)N1CC(NC(=O)c2cc3c(s2)-c2ccccc2N(C(=O)c2cccc(-c4c[nH]nc4C4CC4)n2)CC3)C1 [Example 185] | > 800 nM
Cc1cccc(F)c1NC(=O)c1cc2c(s1)-c1ccc(F)cc1N(C(=O)c1cccc(N(C)C[C@H]3CCCO3)n1)CC2 [Example 491] | < 400 nM
O=C(NC1CC1)c1cc2c(s1)-c1ccccc1N(C(=O)c1cccc(N3CCOc4ccc(F)cc4C3)n1)CC2 [Example 278] | < 400 nM
Cc1cccc(F)c1NC(=O)c1cc2c(s1)-c1ccccc1N(C(=O)c1cccc(N(C)Cc3ccccc3-c3ccccc3)n1)CC2 [Example 355] | > 800 nM
Cc1cccc(F)c1NC(=O)c1cc2c(s1)-c1ccccc1N(C(=O)c1cccc(-c3cncn3C3CCC3)n1)CC2 [Example 199] | < 400 nM
Cc1cccc(F)c1NC(=O)c1cc2c(s1)-c1ccccc1N(C(=O)c1cccc(N[C@H]3CCCNC3=O)n1)CC2 [Example 477] | > 800 nM
Cc1cccc(F)c1NC(=O)c1cc2c(s1)-c1ccc(F)cc1N(C(=O)c1cccc(-c3cn[nH]c3C3CC3)n1)CC2 [Example 170] | < 400 nM
Cn1cc(-c2cccc(C(=O)N3CCc4cc(C(=O)NC5CC5)sc4-c4ccccc43)n2)ccc1=O [Example 151] | > 800 nM
Cc1cccc(F)c1NC(=O)c1cc2c(s1)-c1ccccc1N(C(=O)c1cccc(N(CCS(C)(=O)=O)C3CC3)n1)CC2 [Example 463] | 400 to 800 nM
O=C(NC1CC1)c1cc2c(s1)-c1ccccc1N(C(=O)c1cccc(N3CCC(c4ccccc4)CC3)n1)CC2 [Example 30] | > 800 nM
O=C(NC1CC1)c1cc2c(s1)-c1ccccc1N(C(=O)c1ccc(CC(=O)N3CCOCC3)cc1)CC2 [Example 8] | > 800 nM
CCS(=O)(=O)n1cc(-c2cccc(C(=O)N3CCc4cc(C(=O)Nc5c(C)cccc5F)sc4-c4ccccc43)n2)c(C2CC2)n1 [Example 220] | 400 to 800 nM

same assay, conditions: human respiratory syncytial virus, HEp-2, read-out: Human RSV-A (“Long” strain) EC50

SMILES | EC50
Cc1ccc2c(c1)c(-c1cccc(C(=O)N3CCc4cc(C(=O)Nc5c(C)cccc5F)sc4-c4ccccc43)n1)cn2[Si](C)(C)C(C)(C)C [Example 254] | > 800 nM
